Results reported in patent US20250136596A1, “MEMBRANE-ASSOCIATED TYROSINE- AND THREONINE-SPECIFIC CDC2-INHIBITORY KINASE (PKMYT1) INHIBITORS AND USES THEREOF” (Insilico Medicine IP Limited, priority 2022, published 2025).

Target: PKMYT1 (Homo sapiens (Human), UniProt Q99640)
Assay: PKMYT1 HTRF Assay
Assay type: binding
Details: Tracer 178, GST-Tb; compound 10 μM to 0.5 nM; read-out: MYT1 HTRF IC50
Procedure: Example A: PKMYT1 HTRF Assay
Compound serial dilution is performed by Echo, and the final concentrations vary from 10 μM to 0.5 nM. This was filled by the addition of 5 μL/well of Enzyme solution to the assay plate containing the compound. The plate was centrifuged at 1000 rpm for 1 minute, and incubate 15 minutes at 25 ? . Then 5 μL/well of tracer solution (Tracer 178) was added to initiate the reaction, and incubate for 60 minutes at 25° C. Next 5 μL GST-Tb was added into the assay plate, the plate was centrifuged at 1000 rpm for 1 minute, and incubate for 15 minutes at 25 ? . The assay plate was read on Envision.

Sequence of PKMYT1 (Q99640 whole entry): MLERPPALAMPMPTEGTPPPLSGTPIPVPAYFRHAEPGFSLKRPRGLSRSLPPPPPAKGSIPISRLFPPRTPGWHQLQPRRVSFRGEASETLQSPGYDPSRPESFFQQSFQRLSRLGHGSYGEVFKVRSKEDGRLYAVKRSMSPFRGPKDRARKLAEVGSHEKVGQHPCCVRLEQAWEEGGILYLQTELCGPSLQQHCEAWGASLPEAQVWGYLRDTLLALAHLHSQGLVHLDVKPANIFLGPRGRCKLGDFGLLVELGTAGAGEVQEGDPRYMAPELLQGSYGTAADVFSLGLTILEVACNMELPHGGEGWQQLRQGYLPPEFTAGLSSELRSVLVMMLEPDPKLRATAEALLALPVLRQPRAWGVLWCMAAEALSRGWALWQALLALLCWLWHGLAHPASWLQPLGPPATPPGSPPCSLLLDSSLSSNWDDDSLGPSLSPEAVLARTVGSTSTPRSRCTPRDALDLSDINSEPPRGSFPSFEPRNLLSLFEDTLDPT

Row | Structure (SMILES) | IC50
1 | Cc1ccc(O)c(C)c1-c1cnc2[nH]c(-c3cnn(C)c(=O)c3)c(Cl)c2c1C#N [Example 66, (R)-3-chloro-5-(3-hydroxy-2,6-dimethylphenyl)-2-(1-methyl-6-oxo-1,6-dihydropyridazin-4-yl)-1H-pyrrolo[2,3-b]pyridine-4-carbonitrile] | < 10 nM
2 | COCCn1ncc(-c2[nH]c3ncc(-c4c(C)ccc(O)c4C)c(C#N)c3c2Cl)cc1=O [Example 67, (R)-3-chloro-5-(3-hydroxy-2,6-dimethylphenyl)-2-(1-(2-methoxyethyl)-6-oxo-1,6-dihydropyridazin-4-yl)-1H-pyrrolo[2,3-b]pyridine-4-carbonitrile] | < 10 nM
3 | Cc1ccc(O)c(C)c1-c1cnc2[nH]c(-c3cnn(C4CCOCC4)c(=O)c3)c(Cl)c2c1C#N [Example 68, (R)-3-chloro-5-(3-hydroxy-2,6-dimethylphenyl)-2-(6-oxo-1-(tetrahydro-2H-pyran-4-yl)-1,6-dihydropyridazin-4-yl)-1H-pyrrolo[2,3-b]pyridine-4-carbonitrile] | < 10 nM
4 | Cc1ccc(O)c(C)c1-c1cnc2[nH]c(-c3cnc(N4CC(C(=O)O)C4)nc3)cc2c1C#N [Example 69, (R)-1-(5-(4-cyano-5-(3-hydroxy-2,6-dimethylphenyl)-1H-pyrrolo[2,3-b]pyridin-2-yl)pyrimidin-2-yl)azetidine-3-carboxylic acid] | < 10 nM
5 | Cc1ccc(O)c(C)c1-c1cnc2[nH]c(-c3cnc(N4CC(C(=O)O)C4)nc3)c(Cl)c2c1C#N [Example 70, (R)-1-(5-(3-chloro-4-cyano-5-(3-hydroxy-2,6-dimethylphenyl)-1H-pyrrolo[2,3-b]pyridin-2-yl)pyrimidin-2-yl)azetidine-3-carboxylic acid] | < 10 nM
6 | Cc1ccc(O)c(C)c1-c1cnc2[nH]c(-c3cnc(N4CC(C(N)=O)C4)nc3)cc2c1C#N [Example 71, (R)-1-(5-(4-cyano-5-(3-hydroxy-2,6-dimethylphenyl)-1H-pyrrolo[2,3-b]pyridin-2-yl)pyrimidin-2-yl)azetidine-3-carboxamide] | < 10 nM
7 | Cc1ccc(O)c(C)c1-c1cnc2[nH]c(-c3cnc(N4CCC(C(=O)O)C4)nc3)c(Cl)c2c1C#N [Example 72, (R)-1-(5-((R)-3-chloro-4-cyano-5-(3-hydroxy-2,6-dimethylphenyl)-1H-pyrrolo[2,3-b]pyridin-2-yl)pyrimidin-2-yl)pyrrolidine-3-carboxylic acid] | < 10 nM
8 | Cc1ccc(O)c(C)c1-c1cnc2[nH]c(-c3cnc(N4CCC(C(N)=O)C4)nc3)c(Cl)c2c1C#N [Example 73, (S)-1-(5-((R)-3-chloro-4-cyano-5-(3-hydroxy-2,6-dimethylphenyl)-1H-pyrrolo[2,3-b]pyridin-2-yl)pyrimidin-2-yl)pyrrolidine-3-carboxamide] | < 10 nM
9 | Cc1ccc(O)c(C)c1-c1cnc2[nH]c(-c3cnc(N4CCCC4CO)nc3)c(Cl)c2c1C#N (stereo not drawn) [Example 74, 3-chloro-5-(3-hydroxy-2,6-dimethylphenyl)-2-(2-(2-(hydroxymethyl)pyrrolidin-1-yl)pyrimidin-5-yl)-1H-pyrrolo[2,3-b]pyridine-4-carbonitrile] | < 10 nM
10 | COCCOc1ncc(-c2cc3c(C#N)c(-c4c(C)ccc(O)c4C)cnc3[nH]2)cn1 [Example 75, (R)-5-(3-hydroxy-2,6-dimethylphenyl)-2-(2-(2-methoxyethoxy)pyrimidin-5-yl)-1H-pyrrolo[2,3-b]pyridine-4-carbonitrile] | < 10 nM
11 | COCCOc1ncc(-c2[nH]c3ncc(-c4c(C)ccc(O)c4C)c(C#N)c3c2Cl)cn1 [Example 76, (R)-3-chloro-5-(3-hydroxy-2,6-dimethylphenyl)-2-(2-(2-methoxyethoxy)pyrimidin-5-yl)-1H-pyrrolo[2,3-b]pyridine-4-carbonitrile] | < 10 nM
12 | Cc1ncc(-c2[nH]c3ncc(-c4c(C)ccc(O)c4C)c(C#N)c3c2Cl)c(C)n1 [Example 78, (R)-3-chloro-2-(2,4-dimethylpyrimidin-5-yl)-5-(3-hydroxy-2,6-dimethylphenyl)-1H-pyrrolo[2,3-b]pyridine-4-carbonitrile] | 50 to 500 nM
